From a compilation of properties of binary mixtures (doi:10.1021/acs.jpcc.9b06000)

Assay: xn = mol fraction of the nth substance listed
Conditions: 101 kPa

Compound `FC1CC(F)(F)C(F)(F)C1(F)F` (centres undefined) + CCCC[N+]1(C)CCCC1.FC(F)(F)C(F)(F)[P-](F)(F)(F)(C(F)(F)C(F)(F)F)C(F)(F)C(F)(F)F has an electrical conductivity (298.1 K, x2 = 0.035) of 0.402 S/m, an electrical conductivity (298.1 K, x2 = 0.077) of 0.514 S/m and an electrical conductivity (298.1 K, x2 = 0.122) of 0.605 S/m. The viscosity (298.1 K, x2 = 0.127) was 3.91 mPa·s, the electrical conductivity (298.1 K, x2 = 0.18) was 0.678 S/m and the electrical conductivity (298.1 K, x2 = 0.248) was 0.569 S/m. The electrical conductivity (298.1 K, x2 = 0.334) was 0.489 S/m, the electrical conductivity (298.1 K, x2 = 0.437) was 0.351 S/m and the viscosity (298.1 K, x2 = 0.656) was 54.8 mPa·s. The viscosity (298.1 K, x2 = 0.841) was 112.6 mPa·s, the electrical conductivity (303 K, x2 = 0.035) was 0.428 S/m and the electrical conductivity (303 K, x2 = 0.077) was 0.554 S/m. For the same compound, the viscosity (303 K, x2 = 0.08) was 2.72 mPa·s, the electrical conductivity (303 K, x2 = 0.122) was 0.656 S/m and the electrical conductivity (303 K, x2 = 0.248) was 0.638 S/m. The electrical conductivity (303 K, x2 = 0.331) was 0.572 S/m, the viscosity (303 K, x2 = 0.338) was 11.23 mPa·s and the electrical conductivity (303 K, x2 = 0.653) was 0.33 S/m. It also gave a viscosity (303 K, x2 = 0.659) of 45 mPa·s, an electrical conductivity (308.1 K, x2 = 0.032) of 0.453 S/m and a viscosity (308.1 K, x2 = 0.08) of 2.37 mPa·s. It also gave an electrical conductivity (308.1 K, x2 = 0.125) of 0.717 S/m, an electrical conductivity (308.1 K, x2 = 0.183) of 0.812 S/m and an electrical conductivity (308.1 K, x2 = 0.248) of 0.703 S/m. The electrical conductivity (308.1 K, x2 = 0.331) was 0.641 S/m, the electrical conductivity (308.1 K, x2 = 0.437) was 0.478 S/m and the viscosity (308.1 K, x2 = 0.437) was 15.23 mPa·s. The electrical conductivity (308.1 K, x2 = 0.656) was 0.38 S/m, the viscosity (308.1 K, x2 = 0.656) was 37 mPa·s and the electrical conductivity (308.1 K, x2 = 0.839) was 0.254 S/m. For the same compound, the viscosity (308.1 K, x2 = 0.844) was 68.1 mPa·s, the viscosity (313 K, x2 = 0) was 1.28 mPa·s and the electrical conductivity (313 K, x2 = 0.035) was 0.482 S/m. It also gave an electrical conductivity (313 K, x2 = 0.077) of 0.638 S/m, an electrical conductivity (313 K, x2 = 0.122) of 0.772 S/m and an electrical conductivity (313 K, x2 = 0.251) of 0.764 S/m. It also gave an electrical conductivity (313 K, x2 = 0.334) of 0.714 S/m, a viscosity (313 K, x2 = 0.338) of 8.03 mPa·s and an electrical conductivity (313 K, x2 = 0.437) of 0.54 S/m. It also gave an electrical conductivity (313 K, x2 = 0.653) of 0.449 S/m, a viscosity (313 K, x2 = 0.655) of 28.8 mPa·s and an electrical conductivity (313 K, x2 = 0.839) of 0.297 S/m. For the same compound, the viscosity (313 K, x2 = 0.841) was 54.5 mPa·s, the viscosity (318.1 K, x2 = 0.08) was 1.95 mPa·s and the electrical conductivity (318.1 K, x2 = 0.125) was 0.83 S/m. The electrical conductivity (318.1 K, x2 = 0.183) was 0.949 S/m, the electrical conductivity (318.1 K, x2 = 0.248) was 0.826 S/m and the electrical conductivity (318.1 K, x2 = 0.338) was 0.786 S/m. For the same compound, the electrical conductivity (318.1 K, x2 = 0.431) was 0.609 S/m, the electrical conductivity (318.1 K, x2 = 0.653) was 0.511 S/m and the viscosity (318.1 K, x2 = 0.84) was 44.8 mPa·s. The viscosity (323 K, x2 = 0) was 1.08 mPa·s, the electrical conductivity (323 K, x2 = 0.039) was 0.543 S/m and the electrical conductivity (323 K, x2 = 0.077) was 0.75 S/m. For the same compound, the electrical conductivity (323 K, x2 = 0.122) was 0.906 S/m, the electrical conductivity (323 K, x2 = 0.183) was 1.04 S/m and the viscosity (323 K, x2 = 0.183) was 3.12 mPa·s. It also gave an electrical conductivity (323 K, x2 = 0.248) of 0.899 S/m, an electrical conductivity (323 K, x2 = 0.331) of 0.851 S/m and a viscosity (323 K, x2 = 0.335) of 6.61 mPa·s. For the same compound, the electrical conductivity (323 K, x2 = 0.434) was 0.703 S/m, the electrical conductivity (323 K, x2 = 0.653) was 0.591 S/m and the electrical conductivity (323 K, x2 = 0.839) was 0.417 S/m. It also gave a viscosity (323 K, x2 = 0.84) of 36.8 mPa·s.
